Results taken from US8754226B2, “Piperidinyl-substituted lactams as GPR119 modulators” (Array BioPharma Inc., priority 2010, dated 2014).

Test system: modified version of the GPR119 receptor (94% identity to human receptor)
Assay: cAMP production assay (LANCE cAMP kit, TR-FRET) in HEK-293 cells
Format: cell-based
Settings: for cAMP production in HEK-293 cells: HEK-293 cells stably expressing modified GPR119, test compounds 0.2 nM to 10 μM, one-hour incubation at ambient temperature; for Fold over baseline: increase in cAMP relative to basal levels, agonist activity if 1.5-fold or greater
Method in brief: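 Doxycycline-induced (1 μg/mL, overnight) HEK-293 cells expressing modified GPR119 were thawed, 2000 cells/well, and exposed to compounds (0.2 nM-10 μM final, 0.5% DMSO) for 1 h at ambient temperature in HBSS/HEPES/BSA. cAMP was measured by LANCE TR-FRET against a standard curve. Agonism was defined as ≥1.5-fold over basal.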

Q: For `N#Cc1ccc(N[C@H]2CCN(C3CCN(c4ncc(C(F)(F)F)cc4Cl)CC3)C2=O)c(F)c1` [Example 152, (S)-4-(1-(1-(3-chloro-5-(trifluoromethyl)pyridin-2-yl)piperidin-4-yl)-2-oxopyrrolidin-3-ylamino)-3-fluorobenzonitrile], which “cAMP production in HEK-293 cells” value is on record?
A: Its value is 26.6 nmol.

Q: What about the Fold over baseline of the same molecule?
A: Its Fold over baseline is 3.3.

Q: `O=C(c1ccc(O[C@H]2CCN(C3CCN(c4ncc(Cl)cc4F)CC3)C2=O)c(F)c1)N1CC[C@H](O)C1` [Example 153, (S)-1-(1-(5-chloro-3-fluoropyridin-2-yl)piperidin-4-yl)-3-(2-fluoro-4-((S)-3-hydroxypyrrolidine-1-carbonyl)phenoxy)pyrrolidin-2-one] was tested. Which “cAMP production in HEK-293 cells” value did it give?
A: The value was 14.3 nmol.

Q: What about the Fold over baseline of the same molecule?
A: The Fold over baseline was 3.1.

Q: What does the source list for `CN(CCO)C(=O)c1ccc(O[C@H]2CCN(C3CCN(c4ncc(Cl)cc4F)CC3)C2=O)c(F)c1` [Example 154, (S)-4-(1-(1-(5-chloro-3-fluoropyridin-2-yl)piperidin-4-yl)-2-oxopyrrolidin-3-yloxy)-3-fluoro-N-(2-hydroxyethyl)-N-methylbenzamide]?
A: cAMP production in HEK-293 cells: 14.6 nmol; Fold over baseline: 3.1

Q: Which results are given for `O=C(c1ccc(O[C@H]2CCN(C3CCN(c4ncc(Cl)cc4F)CC3)C2=O)c(F)c1)N1CC[C@@H](O)C1` [Example 155, (S)-1-(1-(5-chloro-3-fluoropyridin-2-yl)piperidin-4-yl)-3-(2-fluoro-4-((R)-3-hydroxypyrrolidine-1-carbonyl)phenoxy)pyrrolidin-2-one]?
A: cAMP production in HEK-293 cells: 13.4 nmol; Fold over baseline: 2.5

Q: With `CS(=O)(=O)c1ccc(N[C@H]2CCN(C3CCN(c4ncc(CO)cc4Cl)CC3)C2=O)c(F)c1` [Example 156, (S)-1-(1-(3-chloro-5-(hydroxymethyl)pyridin-2-yl)piperidin-4-yl)-3-(2-fluoro-4-(methylsulfonyl)phenylamino)pyrrolidin-2-one] as the molecule, how does the “cAMP production in HEK-293 cells” value read?
A: Its value is 17.3 nmol.

Q: And the Fold over baseline?
A: The Fold over baseline was 2.3.

Q: What does the source list for `CN(C)C(=O)c1cnc(N2CCC(N3CC[C@H](Nc4ccc(S(C)(=O)=O)cc4F)C3=O)CC2)c(Cl)c1` [Example 157, (S)-5-chloro-6-(4-(3-(2-fluoro-4-(methylsulfonyl)phenylamino)-2-oxopyrrolidin-1-yl)piperidin-1-yl)-N,N-dimethylnicotinamide]?
A: cAMP production in HEK-293 cells: 8.3 nmol; Fold over baseline: 3.1

Q: Which “cAMP production in HEK-293 cells” value does the source give for `CS(=O)(=O)c1ccc(N[C@H]2CCN(C3CCN(c4cnc(C(F)(F)F)nc4)CC3)C2=O)c(F)c1` [Example 158, (S)-3-(2-fluoro-4-(methylsulfonyl)phenylamino)-1-(1-(2-(trifluoromethyl)pyrimidin-5-yl)piperidin-4-yl)pyrrolidin-2-one] here?
A: The value was 12.5 nmol.

Q: What about the Fold over baseline of the same molecule?
A: Its Fold over baseline is 3.2.

Q: `CCc1ncc(N2CCC(N3CC[C@H](Nc4ccc(S(C)(=O)=O)cc4F)C3=O)CC2)cn1` [Example 159, (S)-1-(1-(2-ethylpyrimidin-5-yl)piperidin-4-yl)-3-(2-fluoro-4-(methylsulfonyl)phenylamino)pyrrolidin-2-one] was tested. Which “cAMP production in HEK-293 cells” value did it give?
A: Its value is 8.0 nmol.

Q: What about the Fold over baseline of the same molecule?
A: The Fold over baseline was 2.0.

Q: How did the “cAMP production in HEK-293 cells” value turn out when `COc1cnc(N2CCC(N3CC[C@H](Nc4ccc(S(C)(=O)=O)cc4F)C3=O)CC2)cn1` [Example 160, (S)-3-(2-fluoro-4-(methylsulfonyl)phenylamino)-1-(1-(5-methoxypyrazin-2-yl)piperidin-4-yl)pyrrolidin-2-one] was run?
A: The value was 22.3 nmol.

Q: What about the Fold over baseline of the same molecule?
A: Its Fold over baseline is 3.9.

Q: With `CS(=O)(=O)c1ccc(N[C@H]2CCN(C3CCN(c4ncc(Cl)nc4Cl)CC3)C2=O)cn1` [Example 161, (S)-1-(1-(3,5-dichloropyrazin-2-yl)piperidin-4-yl)-3-(6-(methylsulfonyl)pyridin-3-ylamino)pyrrolidin-2-one] as the molecule, how does the “cAMP production in HEK-293 cells” value read?
A: Its value is 13.8 nmol.

Q: And the Fold over baseline?
A: The Fold over baseline was 3.6.

Q: Which results are given for `CC1(C)CN(c2cnc(Cl)cn2)CCC1N1CC[C@H](Nc2ccc(S(C)(=O)=O)cc2F)C1=O` (stereo partly drawn) [Example 162, (3S)-1-(1-(5-chloropyrazin-2-yl)-3,3-dimethylpiperidin-4-yl)-3-(2-fluoro-4-(methylsulfonyl)phenylamino)pyrrolidin-2-one]?
A: cAMP production in HEK-293 cells: 16.2 nmol; Fold over baseline: 2.8

Q: With `CS(=O)(=O)c1cc(F)c(O[C@H]2CCCN(C3CCN(c4ncc(C(F)(F)F)cc4F)CC3)C2=O)cc1F` [Example 163, (S)-3-(2,5-difluoro-4-(methylsulfonyl)phenoxy)-1′-(3-fluoro-5-(trifluoromethyl)pyridin-2-yl)-[1,4′-bipiperidin]-2-one] as the molecule, how does the “cAMP production in HEK-293 cells” value read?
A: The value was 18.3 nmol.

Q: What about the Fold over baseline of the same molecule?
A: Its Fold over baseline is 3.9.

Q: What does the source list for `CS(=O)(=O)c1cc(F)c(O[C@H]2CCCN(C3CCN(c4cnc(Cl)cn4)CC3)C2=O)cc1F` [Example 164, (S)-1′-(5-chloropyrazin-2-yl)-3-(2,5-difluoro-4-(methylsulfonyl)phenoxy)-[1,4′-bipiperidin]-2-one]?
A: cAMP production in HEK-293 cells: 21.6 nmol; Fold over baseline: 4.3

Q: Which “cAMP production in HEK-293 cells” value does the source give for `CCc1cnc(N2CCC(N3CCC[C@H](Oc4cc(F)c(S(C)(=O)=O)cc4F)C3=O)CC2)nc1` [Example 165, (S)-3-(2,5-difluoro-4-(methylsulfonyl)phenoxy)-1′-(5-ethylpyrimidin-2-yl)-[1,4′-bipiperidin]-2-one] here?
A: The value was 16.0 nmol.

Q: And the Fold over baseline?
A: The Fold over baseline was 3.2.

Q: For `CS(=O)(=O)c1cc(F)c(O[C@H]2CCN(C3CCN(c4ncc(C(F)(F)F)cc4F)CC3)C2=O)cc1F` [Example 166, (S)-3-(2,5-difluoro-4-(methylsulfonyl)phenoxy)-1-(1-(3-fluoro-5-(trifluoromethyl)pyridin-2-yl)piperidin-4-yl)pyrrolidin-2-one], which “cAMP production in HEK-293 cells” value is on record?
A: The value was 15.3 nmol.

Q: And the Fold over baseline?
A: Its Fold over baseline is 3.6.
